target: T1, human 5-HT6 receptor (Homo sapiens, UniProt P50406); assay: Human 5-HT6 Receptor Binding Assay ([3H]LSD, scintillation beads); details: membranes of CHO-K1 cells with recombinant human 5-HT6 receptor, 4 nM [3H]LSD, Cheng-Prusoff; read-out: Human 5-HT6 Ki app
T1 construct: host or cells: CHO-K1 cells, stably transfected; membranes prepared in house
Summary of the method: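 Membranes from CHO-K1 cells stably expressing human 5-HT6, 1.75 μg protein/well with scintillation beads, in 50 mM Tris pH 7.4, 4 mM CaCl2, saponin, ascorbic acid. Nonspecific binding with 10 μM serotonin. IC50 from variable-slope fit; Ki by Cheng-Prusoff.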

T1 sequence (P50406 whole entry): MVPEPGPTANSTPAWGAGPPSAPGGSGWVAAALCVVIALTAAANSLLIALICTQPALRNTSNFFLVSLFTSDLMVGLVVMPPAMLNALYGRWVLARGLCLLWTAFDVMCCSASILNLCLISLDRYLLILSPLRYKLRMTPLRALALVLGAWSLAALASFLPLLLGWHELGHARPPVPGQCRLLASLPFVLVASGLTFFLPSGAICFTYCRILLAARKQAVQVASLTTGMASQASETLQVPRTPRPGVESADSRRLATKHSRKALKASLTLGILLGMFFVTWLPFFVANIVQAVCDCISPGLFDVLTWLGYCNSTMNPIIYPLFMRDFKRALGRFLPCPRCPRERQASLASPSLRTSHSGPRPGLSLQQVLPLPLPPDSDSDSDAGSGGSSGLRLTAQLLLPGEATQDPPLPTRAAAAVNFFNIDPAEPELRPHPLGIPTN

SMILES	Ki [nM]
O=S(=O)(c1ccccc1)c1ccc2c(c1)OCC1C2CCN1C1CCOCC1 (single isomer, unassigned) [Example 69, 7-(phenylsulfonyl)-3-(tetrahydro-2H-pyran-4-yl)-1,2,3,3a,4,9b-hexahydrochromeno[3,4-b]pyrrole]	> 1000
O=S(=O)(c1ccccc1)c1ccc2c(c1)OCC1C2CCN1CC1CCCC1 (single isomer, unassigned) [Example 70, 3-(cyclopentylmethyl)-7-(phenylsulfonyl)-1,2,3,3a,4,9b-hexahydrochromeno[3,4-b]pyrrole]	< 500
O=S(=O)(c1ccccc1)c1ccc2c(c1)OCC1C2CCN1CC1CCCC1 (single isomer, unassigned) [Example 71, 3-(cyclopentylmethyl)-7-(phenylsulfonyl)-1,2,3,3a,4,9b-hexahydrochromeno[3,4-b]pyrrole]	> 1000
O=S(=O)(c1ccccc1)c1ccc2c(c1)OCC1C2CCN1CC1CC1 (single isomer, unassigned) [Example 72, 3-(cyclopropylmethyl)-7-(phenylsulfonyl)-1,2,3,3a,4,9b-hexahydrochromeno[3,4-b]pyrrole]	> 1000
O=S(=O)(c1cncc(Br)c1)c1ccc2c(c1)OCC1C2CCN1C1CCC1 (single isomer, unassigned) [Example 73, 7-[(5-bromopyridin-3-yl)sulfonyl]-3-cyclobutyl-1,2,3,3a,4,9b-hexahydrochromeno[3,4-b]pyrrole]	500 to 1000
COc1cncc(S(=O)(=O)c2ccc3c(c2)OCC2C3CCN2C2CCC2)c1 (single isomer, unassigned) [Example 74, 3-cyclobutyl-7-[(5-methoxypyridin-3-yl)sulfonyl]-1,2,3,3a,4,9b-hexahydrochromeno[3,4-b]pyrrole]	> 1000
O=S(=O)(c1cncc(F)c1)c1ccc2c(c1)OCC1C2CCN1C1CCC1 (single isomer, unassigned) [Example 75, 3-cyclobutyl-7-[(5-fluoropyridin-3-yl)sulfonyl]-1,2,3,3a,4,9b-hexahydrochromeno[3,4-b]pyrrole]	> 1000
O=S(=O)(c1cncc(Cl)c1)c1ccc2c(c1)OCC1C2CCN1C1CCC1 (single isomer, unassigned) [Example 76, 7-[(5-chloropyridin-3-yl)sulfonyl]-3-cyclobutyl-1,2,3,3a,4,9b-hexahydrochromeno[3,4-b]pyrrole]	< 500
O=S(=O)(c1ccccc1)c1ccc2c(c1)OCC1C2CCN1CC(F)F (single isomer, unassigned) [Example 77, 3-(2,2-difluoroethyl)-7-(phenylsulfonyl)-1,2,3,3a,4,9b-hexahydrochromeno[3,4-b]pyrrole]	> 1000
O=S(=O)(c1cncc(Br)c1)c1ccc2c(c1)OCC1C2CCN1C1CCC1 (single isomer, unassigned) [Example 78, 7-[(5-bromopyridin-3-yl)sulfonyl]-3-cyclobutyl-1,2,3,3a,4,9b-hexahydrochromeno[3,4-b]pyrrole]	> 1000
COc1cncc(S(=O)(=O)c2ccc3c(c2)OCC2C3CCN2C2CCC2)c1 (single isomer, unassigned) [Example 79, 3-cyclobutyl-7-[(5-methoxypyridin-3-yl)sulfonyl]-1,2,3,3a,4,9b-hexahydrochromeno[3,4-b]pyrrole]	> 1000
O=S(=O)(c1cncc(F)c1)c1ccc2c(c1)OCC1C2CCN1C1CCC1 (single isomer, unassigned) [Example 80, 3-cyclobutyl-7-[(5-fluoropyridin-3-yl)sulfonyl]-1,2,3,3a,4,9b-hexahydrochromeno[3,4-b]pyrrole]	> 1000
O=S(=O)(c1cncc(Cl)c1)c1ccc2c(c1)OCC1C2CCN1C1CCC1 (single isomer, unassigned) [Example 81, 7-[(5-chloropyridin-3-yl)sulfonyl]-3-cyclobutyl-1,2,3,3a,4,9b-hexahydrochromeno[3,4-b]pyrrole]	> 1000
Cc1cccc(Sc2ccc3c(c2)OCC2C3CCN2C2CCC2)n1 (single isomer, unassigned) [Example 82, 3-cyclobutyl-7-[(6-methylpyridin-2-yl)sulfanyl]-1,2,3,3a,4,9b-hexahydrochromeno[3,4-b]pyrrole]	> 1000
